Experimental data: patent US20090281120A1, “BICYCLIC HETEROCYCLIC COMPOUND” (ONO PHARMACEUTICAL CO., LTD, priority 2005, published 2009)

Legend:
human CRF receptor I [1] = biological target: T1, human CRF receptor I (Homo sapiens, UniProt P34998); test: Receptor antagonistic activity (cyclic AMP assay); assay type: cell-based; conditions: forced expression cell strain of human CRF receptor I; stimulated with human/rat CRF; 37° C., 15 minutes; read-out: antagonistic activity against CRF IC50 value (accumulated cyclic AMP)
T1 construct: expressed in transfected cells; host or cells: CHO-K1
T1 sequence (P34998 24-415): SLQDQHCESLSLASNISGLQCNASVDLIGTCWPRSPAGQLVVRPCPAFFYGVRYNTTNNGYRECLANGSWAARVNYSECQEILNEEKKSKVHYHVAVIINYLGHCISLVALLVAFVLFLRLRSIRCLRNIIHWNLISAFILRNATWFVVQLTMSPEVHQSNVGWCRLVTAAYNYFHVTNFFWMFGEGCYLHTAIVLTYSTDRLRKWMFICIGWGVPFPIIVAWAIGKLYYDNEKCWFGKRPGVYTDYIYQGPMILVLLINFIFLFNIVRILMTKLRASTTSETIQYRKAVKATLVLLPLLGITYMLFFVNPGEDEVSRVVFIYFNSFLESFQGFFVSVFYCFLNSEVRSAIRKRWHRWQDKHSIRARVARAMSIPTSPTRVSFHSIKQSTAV
Description: The forced expression cell strain of the human CRF receptor I was cultured at 37° C. under 5% carbon dioxide and 95% air by using a Ham's F-12 medium (F-12 nutrient mixture) containing 10% bovine fetal serum and 1% antibiotic substance-antifungal agent. On the previous day before the cyclic AMP was measured, the cells were inoculated into a 96-well plate in an amount of 1×10^4 cell/well. On the measurement day, the cells were washed twice with a Ham's F-12 medium, whereby a solution of Ham's F-12 medium/1 mM 3-isobutyl-1-methylxanthine (assay medium) (178 μL) was added to each well. After the incubation at 37° C. for 10 minutes, test drug solutions (2 μL) in various concentrations were added thereto, or DMSO (2 μL) was added to a CRF group and a blank group. An assay medium (20 μL) containing 10 nM human/rat CRF was added to wells of a compound group and the CRF group. An assay medium (20 μL) containing 0.00001% acetic acid was added to the blank group. Each group was further incubated at 37° C. for 15 minutes. […] The accumulated cyclic AMP amounts were calculated by subtracting mean values of corresponding 2 wells in the blank group from that of 2 wells. The IC50 values were calculated with non-linear regression analysis by defining logarithm concentration of the compound as independent variable and an accumulated cyclic AMP amount as dependent variable.

human CRF receptor I [2] = biological target: T1, human CRF receptor I; test: Binding assay (125I-CRF, membrane fraction); conditions: 125I-CRF 0.25 nM; membrane fraction of CHO-K1 cells forcedly expressing human CRF receptor I; room temperature, 2 hours
Description: The forced-expression cell strain of the human CRF receptor I (parent strain is CHO-K1 cell) was cultured until the cell was confluent and collected with a scraper. The collected cells were washed twice with PBS, and were suspended with an ice-colded binding assay buffer (Tris-HCl (50 mM, pH 7.0), EDTA (2 mM, pH 8.0), and MgCl2 (10 mM))). After fractured with a dounce-type homogenizer, the suspended cells were centrifuged at 10,000 g, and a membrane fraction was collected. The collected membrane fraction was resuspended with a little amount of the binding assay buffer, thereafter diluted with the binding assay buffer so as to have a concentration of 1 mg/mL. The obtained membrane fraction was used for a binding assay.
^125I-CRF was diluted with the binding assay buffer so as to have a concentration of 0.5 nM, whereby 50 μL of the diluted ^125I-CRF was added to a siliconized 1.5-mL tube. Next, test drugs diluted at appropriate times, such as DMSO (for general binding) or 100 μM of CRF (for non-specific binding), was added to a […]. Finally, 50 μL of the membrane fraction was added thereto and the reaction was started (final concentration of ^125I-CRF was 0.25 nM). The tube was incubated at room temperature for 2 hours. […] A membrane binding count was measured using a γ counter.
The specific binding count was obtained by subtracting the non-specific count from the measured count.

CCC(CC)c1cc(C)c2nc(-c3ccc(OC)cc3Cl)c(C)n2c1 [Example 7, 2-(2-chloro-4-methoxyphenyl)-6-(1-ethylpropyl)-3,8-dimethylimidazo[1,2-a]pyridine]
IC50 (human CRF receptor I [1]): 41 nM
IC50 (human CRF receptor I [2]): 12 nM
